Common to all, as to experiment: NCI anticancer screen, dose series, 48 h
In experiment [1] the test system is A549.
In experiment [2] the test system is UO-31.
The subject of experiment [3] is CCRF-CEM.
The test system of experiment [4] is PC-3.
For experiment [5], the system named is SW-620.
Experiment [6] relates to SNB-19.
In experiment [7] the test system is UACC-257.
For experiment [8], the system named is SR.
The test system of experiment [9] is SF-539.
The subject of experiment [10] is MDA-N.
In experiment [11] the test system is OVCAR-3.
Experiment [12] deals with HL-60.
In experiment [13] the test system is MCF7.
For experiment [14], the system named is M14.
Experiment [15] relates to OVCAR-8.
In experiment [16] the test system is HCT-116.
Experiment [17] has as its system MDA-MB-231.
Experiment [18] has as its system TK-10.
Experiment [19] concerns IGROV-1.
For experiment [20], the system named is MOLT-4.

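Values below derive from 48-hour exposures of cells grown in 96-well plates, with endpoints linearly interpolated between the two concentrations bracketing the appropriate inhibition level. At the GI50, growth is halved.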 Calls of active or inactive are those of the source. No stated cut-off is given here; in the data, active = GI50 up to about 1.1 µM and inactive = higher. Where a SMILES comes first, the peptide text is derived from it. [ ]: non-standard residue; d: D form. The star is where a group is joined. Hyp = O=C(O)[CH]1C[CH](O)CN1; Cbz = O=C(OCc1ccccc1)*

On to `C=C1C(C)C2C(Cc3ccccc3)NC(=O)C23C(OC(C)=O)C=CC(C)(O)C(=O)C(C)C/C=C/C3C1O` (configuration not stated), for which the GI50 in [1] is 0.764 µM (active); in experiment [2] it was 0.296 µM (active); in experiment [3], 4.24 µM (inactive); in experiment [4], 11.7 µM (inactive); in experiment [5] it was 87.7 µM (inactive); in [6] it was 0.217 µM (active). Besides, the GI50 was 6.59 µM (inactive) in experiment [7]; 3.3 µM (inactive) in experiment [8]; 0.117 µM (active) in experiment [9]; 15.6 µM (inactive) in experiment [10]; 22.4 µM (inactive) in experiment [11]; 4.57 µM (inactive) in [12]. The GI50 in experiment [13] was 6.76 µM (inactive); in experiment [14], 7.24 µM (inactive); in experiment [15], 79.8 µM (inactive); in experiment [16] it was 3.54 µM (inactive); in [17] it was 0.151 µM (active); in experiment [18], 0.505 µM (active). The GI50 in experiment [19] was 0.902 µM (active).

Consider `Cc1cc(NS(=O)(=O)c2ccc(NC(NC(=O)OC(C)C)(C(F)(F)F)C(F)(F)F)cc2)nc(C)n1`, for which the GI50 in experiment [1], in [3], in experiment [4], in experiment [5], in [6] and in experiment [7] was > 100 µM (inactive) each time. Also, the GI50 in experiment [8], in [20], in experiment [9], in experiment [10], in [11] and in experiment [12] was > 100 µM (inactive) throughout. The GI50 in [13], in [14], in [15], in experiment [16], in experiment [17] and in experiment [18] was > 100 µM (inactive) each time. In experiment [19], the GI50 was > 100 µM (inactive).

As to `CCCCn1c2c(c3ccccc3c1=O)C(=O)c1ccccc1-2`, the GI50 in experiment [1] was 25 µM (inactive); in experiment [2], 2.79 µM (inactive); in [3] it was > 100 µM (inactive); in [4] it was > 100 µM (inactive); in experiment [5] it was > 100 µM (inactive); in [7] it was > 100 µM (inactive). Besides, the GI50 was 1.82 µM (inactive) in experiment [8]; 49.1 µM (inactive) in experiment [9]; > 100 µM (inactive) in [10]; > 100 µM (inactive) in experiment [11]; 4.28 µM (inactive) in [12]; 15 µM (inactive) in experiment [13]. In addition, the GI50 in [14] was > 100 µM (inactive); in experiment [15], > 100 µM (inactive); in [16], > 100 µM (inactive); in experiment [17], 94 µM (inactive); in experiment [18], 62.4 µM (inactive); in [19] it was 76.7 µM (inactive).

With `COCc1nc(C#N)c(N)o1`, the GI50 in experiment [1], in experiment [2], in experiment [3], in [4], in experiment [5] and in [6] was > 10 µM (inactive) each time. Also, the GI50 in experiment [7], in experiment [8], in [20], in experiment [9], in experiment [10] and in experiment [12] was > 10 µM (inactive) in each case. Moreover, the GI50 in experiment [13], in [14], in experiment [15], in experiment [16], in [17] and in experiment [18] was > 10 µM (inactive) each time. For the same compound, the GI50 in experiment [19] was > 10 µM (inactive).

In the case of `CN(C1=NCCO1)c1cccc2c1CCCC2`, the GI50 was 4.26 µM (inactive) in experiment [1]; 1.15 µM (inactive) in experiment [3]; 2.25 µM (inactive) in experiment [4]; > 10 µM (inactive) in experiment [5]; 8.04 µM (inactive) in experiment [6]; 3.92 µM (inactive) in experiment [7]. For the same compound, the GI50 in experiment [8] was 1.21 µM (inactive); in experiment [20], 1.77 µM (inactive); in [9], 3.25 µM (inactive); in experiment [10] it was 5.18 µM (inactive); in experiment [12] it was 4.41 µM (inactive); in experiment [13], 4.51 µM (inactive). In addition, the GI50 in experiment [14] is 2.23 µM (inactive); in [15], 5.3 µM (inactive); in [16] it was 2.99 µM (inactive); in experiment [17] it was 1.73 µM (inactive); in experiment [18] it was 3.23 µM (inactive); in experiment [19] it was 2.75 µM (inactive).

With `CCNC1=C(NC(=O)CCl)C(=O)c2ccccc2C1=O`, the GI50 in [1] was 33.7 µM (inactive); in experiment [3], 20 µM (inactive); in experiment [4] it was 16 µM (inactive); in [5], 25.8 µM (inactive); in [6] it was 26.7 µM (inactive); in experiment [7], > 10 µM (inactive). Besides, the GI50 in experiment [8] is 32.8 µM (inactive); in experiment [20], 18.2 µM (inactive); in [9], 21.7 µM (inactive); in experiment [10], 15.6 µM (inactive); in [11], 17.7 µM (inactive); in experiment [12], 34.1 µM (inactive). The GI50 in experiment [13] was 22.4 µM (inactive); in [14] it was 20.9 µM (inactive); in experiment [15], 20.1 µM (inactive); in experiment [16], 18.4 µM (inactive); in experiment [17], 21.5 µM (inactive); in experiment [18] it was 17.7 µM (inactive). In addition, the GI50 in [19] was > 10 µM (inactive).

With `COc1ccc2cc(C(=O)O)ccc2c1OC`, the GI50 in experiment [1], in experiment [2], in experiment [3], in experiment [4], in [5] and in [6] was > 100 µM (inactive) each time. Moreover, the GI50 in experiment [7], in experiment [8], in experiment [20], in experiment [9], in experiment [10] and in experiment [11] was > 100 µM (inactive) each time. The GI50 in [12], in [13], in experiment [14], in experiment [15], in experiment [16] and in [17] was > 100 µM (inactive) in each case. Besides, in [19], the GI50 is > 100 µM (inactive).

For `CC1(c2ccccc2)CCN(C2CC2)CO1` (configuration not stated), the GI50 was > 100 µM (inactive) in experiment [1]; 18.5 µM (inactive) in experiment [2]; 32.4 µM (inactive) in experiment [3]; > 100 µM (inactive) in experiment [4]; 19 µM (inactive) in [5]; > 100 µM (inactive) in experiment [6]. In addition, the GI50 in experiment [7] was 22.4 µM (inactive); in [8], 25.5 µM (inactive); in experiment [20], 18.3 µM (inactive); in [10], 15.1 µM (inactive); in experiment [11] it was 17.7 µM (inactive); in [12] it was 45.2 µM (inactive). The GI50 in [13] was 16.2 µM (inactive); in [14] it was 16.9 µM (inactive); in experiment [15], 68.1 µM (inactive); in experiment [16], 19.9 µM (inactive); in experiment [17], 19.3 µM (inactive); in experiment [18], 13.8 µM (inactive). Besides, the GI50 in experiment [19] was 19.6 µM (inactive).

For the compound `Fc1ccc2c(c1)nc1n2C(c2c(F)cccc2F)SC1` (configuration not stated), the GI50 in experiment [1] is 48.5 µM (inactive); in experiment [2], 25 µM (inactive); in experiment [4] it was 51.6 µM (inactive); in experiment [5] it was 69.3 µM (inactive); in experiment [6] it was 45.4 µM (inactive); in experiment [7], 52.7 µM (inactive). In addition, the GI50 is 18.1 µM (inactive) in experiment [8]; 25.8 µM (inactive) in experiment [20]; > 100 µM (inactive) in experiment [9]; 28.2 µM (inactive) in experiment [10]; 28.6 µM (inactive) in [11]; 20.7 µM (inactive) in experiment [12]. In addition, the GI50 is 42.1 µM (inactive) in [13]; 49.8 µM (inactive) in [14]; 37.1 µM (inactive) in experiment [15]; 25.6 µM (inactive) in [16]; 91.8 µM (inactive) in experiment [17]; 46.7 µM (inactive) in [18]. In experiment [19], the GI50 is 64.9 µM (inactive).

`CCOC1CC(C)N(C(=O)c2ccccc2)O1` (configuration not stated): the GI50 in experiment [1] is > 100 µM (inactive); in experiment [2] it was > 100 µM (inactive); in experiment [3], > 100 µM (inactive); in experiment [4], 80.2 µM (inactive); in [5], > 100 µM (inactive); in [6] it was > 100 µM (inactive). Besides, the GI50 in experiment [8], in experiment [20], in [9], in experiment [10], in experiment [11] and in experiment [12] was > 100 µM (inactive) in each case. For the same compound, the GI50 in experiment [13], in experiment [14], in [15], in experiment [16], in experiment [17] and in experiment [18] was > 100 µM (inactive) throughout. Moreover, the GI50 in experiment [19] was > 100 µM (inactive).

On to `NC(=O)CNC(=O)C1CC(O)CN1C(=O)C1CCCN1C(=O)OCc1ccccc1` (stereo not drawn) (Cbz-Pro-[Hyp]-Gly-NH2; configuration not given here), for which the GI50 in experiment [1], in [2], in experiment [3], in experiment [4], in experiment [5] and in [6] was > 100 µM (inactive) in each case. Further, the GI50 in experiment [7], in experiment [8], in experiment [20], in experiment [10], in experiment [11] and in experiment [12] was > 100 µM (inactive) each time. Besides, the GI50 in experiment [13], in experiment [14], in [15], in [16], in [17] and in [18] was > 100 µM (inactive) each time. In addition, the GI50 in [19] is > 100 µM (inactive).

The values above are taken from ChEMBL document CHEMBL1201862, “PubChem BioAssay data set” (2004).
